Source: US10973748B2, “Compositions and methods for lightening skin and reducing hyperpigmentation” (Versitech Limited, priority 2016, dated 2021)

Legend:
tyrosinase [1] = biological target: T1, tyrosinase (Mus musculus, UniProt P11344); assay: Cellular tyrosinase activity assay (L-DOPA oxidation in cell lysates); assay type: cell-based, murine; settings: melan-a cells, α-MSH, 72 hrs; 6-CEPN 10 or 20 μM, 8-CEPQ 2.5 or 5 μM
T1 construct: endogenous in cells; host or cells: melan-a cells
T1 sequence (P11344 19-533): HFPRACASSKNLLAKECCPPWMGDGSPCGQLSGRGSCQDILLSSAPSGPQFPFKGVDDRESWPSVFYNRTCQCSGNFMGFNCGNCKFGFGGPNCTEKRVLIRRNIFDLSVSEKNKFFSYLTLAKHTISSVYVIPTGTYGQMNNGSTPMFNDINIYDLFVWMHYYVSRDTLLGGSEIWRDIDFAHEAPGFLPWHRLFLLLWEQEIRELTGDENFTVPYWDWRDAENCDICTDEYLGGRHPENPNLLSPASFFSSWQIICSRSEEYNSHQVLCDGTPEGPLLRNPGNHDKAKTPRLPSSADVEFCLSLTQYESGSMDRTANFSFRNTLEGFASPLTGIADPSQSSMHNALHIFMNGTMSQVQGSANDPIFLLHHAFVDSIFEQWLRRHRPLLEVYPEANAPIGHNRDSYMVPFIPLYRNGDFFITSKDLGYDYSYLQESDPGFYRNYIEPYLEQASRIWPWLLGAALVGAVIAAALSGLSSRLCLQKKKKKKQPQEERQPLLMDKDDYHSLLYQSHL
Procedure: Cellular tyrosinase activity was determined by measuring the oxidation of L-3,4-dihydroxyphenylalanine (L-DOPA) to dopachrome in cell lysates. Melan-a cells (1.5×10^5 cells/well) were plated in 1 mL of culture medium in a 24-well multidishes for at least 24 hrs prior to use. The cells were treated with α-MSH (1 μM) alone or with α-MSH plus different concentrations of testing agents for 72 hrs. The cells were washed with cold PBS and lysed in 900 μL of PBS with 1% Triton X-100. After being freeze-thawed at −80° C. for 30 min followed by 25° C. for 30 min, 100 μL of 10 mM L-DOPA was then added to each well. Following incubation at 37° C. for 1 hr, the absorbance of the agents was measured at 490 nm using Victor X4 Multilabel Plate Reader (PerkinElmer, Mass., USA).

[2] = system: microphthalmia-associated transcription factor (MITF); assay: Western blotting of MITF expression in melan-a cells; assay type: cell-based, murine; settings: α-MSH, 72 hrs, 20 μM
Procedure: (§1) Melan-a cells (3×10^5 cells/well) were seeded in 4 mL of culture medium in a 6-well plate for at least 24 hrs prior to use. The cells were treated with α-MSH (1 μM) alone, α-MSH plus plus different concentration of agents for 72 hrs. The cells were washed with cold PBS and then lysed in 100 μL of RIPA buffer containing 1% Nonidet P-40, 0.1% sodium dodecylsulfate, 0.5% sodium deoxycholate, and 2% protease inhibitor at 4° C. Samples were centrifuged at 14,000 rpm for 30 mins at 4° C., and total proteins in the supernatant were separated. 10 μg of denatured proteins were loaded per lane, and separated by 10% SDS-PAGE gel. Proteins were then transferred to Immobilon-P Transfer Membranes (Millipore Co., Bed-ford, Mass.) by semidry transfer. Membranes were incubated with primary antibodies specific for Tyrosinase, tyrosinase-related protein-1 (TRP1), tyrosinase-related protein-2 (TRP2), and microphthalmia-associated transcription factor (MITF). The blots were subsequently washed and incubated with the appropriate secondary antibodies. Immunoreactive protein bands were visualized with enhanced chemiluminescence western blotting detection reagents and quantified using an ODYSSEY Fc Imaging system. The amounts of protein loaded were normalized against a control protein, β-actin.

[3] = system: tyrosinase-related protein-2 (TRP2); assay: Western blotting of TRP-2 protein level in melan-a cells; assay type: cell-based, murine; settings: α-MSH, 72 hrs, 20 μM
Procedure: as §1

[4] = system: MelanoDerm (Mel-300-A) epidermal equivalents containing melanocytes; assay: Solvable Melanin assay in artificial skin model; assay type: cell-based, human; settings: 14 days, rapamycin 2.5 μM, 6-CEPN 10 μM, 8-CEPQ 5 μM
Procedure: Epidermal equivalents containing melanocytes (Mel-300-A) were maintained according to the manufacturer's instructions. Mel-300-A tissue was cultured in EPI-100-NMM-113 medium for 14 days. Agents were dissolved in tissue culture medium and changed every other day. The test agents were either (1) rapamycin (2.5 μM), as the positive control in depigmentation, (2) 6-CEPN (10 μM), or (3) 8-CEPQ (5 μM). The concentration of rapamycin used was lower than 6-CEPN and 8-CEPQ, as rapamycin is toxic to cells at higher concentration. Pigmentation of these skin equivalents was compared against treatment of cells with a culture medium only (denoted as “vehicle”). Tissue viability was assessed on day 14 by CCK-8 assay as described in Example 1. On day 14, single tissues were harvested and photographed. The L* parameter was used to evaluate skin lightening or darkening. The lighter the skin, the greater the L* value. ΔL* value was measured by a Chroma Meter CR400 (Konica Minolta) for an evaluation of lightening as a function of time. Three tissues for each treatment were frozen for the Solvable Melanin assay (Bessou-Touya et al., “Chimeric human epidermal reconstructs to study the role of melanocytes and keratinocytes in pigmentation and photoprotection.” Journal of investigative dermatology 111(6):1103-1108 (1998)). Additional tissues were fixed by 10% formanin. […]

[5] = system: tyrosinase-related protein-1 (TRP1); assay: Western blotting of TRP-1 protein level in melan-a cells; assay type: cell-based, murine; settings: α-MSH, 72 hrs, 20 μM
Procedure: as §1

tyrosinase [6] = assay: Western blotting of tyrosinase protein level in melan-a cells; assay type: cell-based, murine; settings: α-MSH, 72 hrs, 20 μM
Procedure: as §1

Compound: O=C1C[C@@H](c2ccc(O)cc2)Oc2cc(O)c(/C=C/c3ccccc3)c(O)c21 [6-CEPN, 6-C-(E-phenylethenyl)-naringenin]
- tyrosinase activity (tyrosinase [1]): significant inhibition on tyrosinase activity in a dose-dependent manner
- expression of MITF [2]: no clear inhibition
- protein level of TRP-2 [3]: significantly suppressed
- amount of melanin in human skin equivalents [4]: significantly inhibited the amount of melanin
- protein level of TRP-1 [5]: significantly suppressed
- protein level of tyrosinase (tyrosinase [6]): significantly suppressed
